Results on 2 substances are retold here after US9840547B2, “Hepatic insulin sensitizing substance and test meal for insulin sensitization” (SciMar Ltd., priority 2013, dated 2017).

The subject of test [1] is cultured L6 skeletal muscle cells. Put plainly: Plasma HISS activity on glucose uptake in cultured L6 skeletal muscle cells (2-NBDG bioassay). The class given is cell-based. Conditions: plasma insulin concentration versus RFU, linear regression.
Protocol: Individual plasma samples were tested in 1-3 wells/sample with 2 measurements/well.
Test [2] is described as follows: Time course of hypoglycemic action in rats. Conditions: after an intravenous injection. In kind it is in vivo.
A short description of test [3]: Time course of hypoglycemic action in humans. The class given is in vivo. The settings on record: after an intravenous injection.
For test [4] the following is noted: literature; cited from earlier work.

On to insulin, for which the “stimulation of glucose uptake response in L6 cells” value in test [1] is listed as “not stimulated by insulin”. Besides, the “time at which action returns to baseline” value turned out to be 35 min in test [2] and 90 min in test [3].

With bone morphogenetic protein 9, in test [4], the hypoglycemic action entry was “no rapid hypoglycemic effect”.
